# From patent publication US12319726B2, “Method for treating CD40-mediated diseases” (CASE WESTERN RESERVE UNIVERSITY, priority 2008, dated 2025)
# Where a SMILES comes first, the peptide text is derived from it. [ ]: non-standard residue; d: D form.
# Legend:
# CD40-TRAF2,3 signaling = experiment: NF-κB luciferase reporter assay in mHEVc expressing hmCD40 ΔT6 (signals through the TRAF2,3 binding site); format: cell-based, mouse; conditions: 1 μM, 3 hr pre-incubation, hmCD40 ΔT6 cells; P<0.01
# Method: Mouse endothelial cells (mHEVc) that express an NF-κB response element that drives transcription of a luciferase reporter plus either hmCD40 ΔT2,3 or hmCD40 ΔT6 were pre-incubated with ri control peptide (Ctr P) or ri CD40-TRAF2,3 blocking peptide (T2,3 BP; both at 1 μM) or medium alone followed by stimulation with human CD154. Data are expressed as fold-increase in normalized luciferase activity in cells stimulated with CD154 compared to cells treated with respective peptide in the absence of CD154. Data shown represent Mean±SD. Results are representative of 2 independent experiments. **P<0.01.
# Peptides were tested as described using the mouse endothelial cells mHEVc that expresses a chimera of the extracellular domain of human CD40 and intracytoplasmic domain of mouse CD40 (hmCD40) with either a mutation that prevents recruitment of TRAF2,3 (hmCD40 ΔT2,3) or TRAF6 (hmCD40 ΔT6). These cells were transfected with pGL4.32luc2P/NF-κB-RE/Hygro vector (Promega Corporation, Madison, WI) encoding an NF-κB response element that drives the luciferase reporter gene luc2P (Photinus pyralis). Cells were pre-incubated with peptides for 3 hr. followed by stimulation with human CD154. Luciferase activity was assessed using a Steady-Glo luciferase assay system (Promega Corporation) and a luminometer. The effects of peptides on cell viability were examined using alamarBlue cell viability assay. […]
# [1] = system: human retinal endothelial cells; format: cell-based
# Description: (§1) Peptide consisted of the TRAF2,3 binding site of CD40 that was made cell permeable by linking them to the TAT47-57 cell penetrating peptide. Peptides were synthesized using D-amino acids following reverse amino acid sequence (ri format). The sequences for the CD40-TRAF2,3 blocking peptide was —NH2-rrrqrrkkrgy ghlteqvhaatn-OH (SEQ ID NO: 49). The TAT47-57 sequence is underlined. The peptide contains a proline (p) to histidine (h) substitution (shown in italics) that enhances affinity to TRAF2. Control (scrambled) peptide consisted of NH2-rrrqrrkkrgy ntqalahtgevh-OH (SEQ ID NO: 50). The blocking peptide was also synthesized with Alexa Fluor 488 conjugated via maleimide coupling to an additional Cys in the N terminus. Peptides were manufactured by Biopeptide Co. (San Diego, CA) and were low in endotoxin and >98% pure by HPLC. Peptides were used at 1 μM in vitro experiments and 1 μg for in vivo studies unless otherwise stated. Peptides were not toxic to human Müller and retinal endothelial cells as assessed by alamarBlue cell viability assay (Invitrogen Corporation).
# (§2) Primary human retinal endothelial cells were obtained as described (9) and cultured in complete medium supplemented with endothelial cell growth supplement from bovine pituitary (15 μg/ml; Sigma Chemical, St Louis, MO) and insulin/transferrin/selenium (Sigma Chemical). Cell identity was confirmed by incorporation of acetylated low-density lipoprotein (>90%). Endothelial cells were used between passages 3 to 6. The human Müller cell line MIO M1 (gift from Dr. Gloria Limb; University College London, UK; >95% vimentin^+, CRALBP^+ and GFAP^−) was also used. Endothelial cells were incubated with multimeric human CD154 to induce CD40 stimulation (obtained from Dr. Richard Kornbluth, Multimeric Biotherapeutics Inc., La Jolla, CA) or with a non-functional CD154 mutant (T147N) as control.
# (§3) Peptides were tested as described using the mouse endothelial cells mHEVc that expresses a chimera of the extracellular domain of human CD40 and intracytoplasmic domain of mouse CD40 (hmCD40) with either a mutation that prevents recruitment of TRAF2,3 (hmCD40 ΔT2,3) or TRAF6 (hmCD40 ΔT6). These cells were transfected with pGL4.32luc2P/NF-κB-RE/Hygro vector (Promega Corporation, Madison, WI) encoding an NF-κB response element that drives the luciferase reporter gene luc2P (Photinus pyralis). Cells were pre-incubated with peptides for 3 hr. followed by stimulation with human CD154. Luciferase activity was assessed using a Steady-Glo luciferase assay system (Promega Corporation) and a luminometer. The effects of peptides on cell viability were examined using alamarBlue cell viability assay.
# human Müller cells = format: cell-based
# Description: as §1, §2, §3
compound,measurement,setting,value
"CC(C)C[C@@H](NC(=O)[C@@H](Cc1c[nH]cn1)NC(=O)CNC(=O)[C@@H](Cc1ccc(O)cc1)NC(=O)CNC(=O)[C@@H](CCCNC(=N)N)NC(=O)[C@@H](CCCCN)NC(=O)[C@@H](CCCCN)NC(=O)[C@@H](CCCNC(=N)N)NC(=O)[C@@H](CCCNC(=N)N)NC(=O)[C@@H](CCC(N)=O)NC(=O)[C@@H](CCCNC(=N)N)NC(=O)[C@@H](CCCNC(=N)N)NC(=O)[C@H](N)CCCNC(=N)N)C(=O)N[C@@H](C(=O)N[C@H](CCC(=O)O)C(=O)N[C@H](CCC(N)=O)C(=O)N[C@@H](C(=O)N[C@H](Cc1c[nH]cn1)C(=O)N[C@H](C)C(=O)N[C@H](C)C(=O)N[C@@H](C(=O)N[C@H](CC(N)=O)C(=O)O)[C@H](C)O)C(C)C)[C@H](C)O [ri CD40-TRAF2,3 blocking peptide, NH2-rrrqrrkkrgy ghlteqvhaatn-OH] (H-[dR][dR][dR][dQ][dR][dR][dK][dK][dR]G[dY]G[dH][dL][dT][dE][dQ][dV][dH][dA][dA][dT][dN]-OH)",NF-κB activity (luciferase) after human CD154,"CD40-TRAF2,3 signaling",inhibited NF-κB activity
same,toxicity (alamarBlue cell viability assay),[1],not toxic
same,toxicity (alamarBlue cell viability assay),human Müller cells,not toxic
